Measured values as given in US9624213B2 (Plexxikon Inc., priority 2011, dated 2017).

What was measured:
A375 = experiment: A375_P-ERK / A375 cell activity; type: cell-based; conditions: Homo sapiens, A-375; A375 cells (A375_P-ERK)
Description: (§1) Compounds are assessed in a variety of cell based assays. For example human cell lines with B-Raf V600E mutation (A375 melanoma, SKMEL3 melanoma, and COLO205 colon adenocarcinoma), as well as tumorigenic cell lines with wild-type B-RAF (SW620 colon adenocarcinoma) or with Ras mutations (SKMEL2 melanoma and IPC298 melanoma). Similar assays may be used to assess additional tumorigenic cell lines with Ras mutations, including, but not limited to, M202, M207, M243, M244, M296, S117, HCT116, HCT15, DLD1, MiaPaCa, A549, NCI-H23, NCI-H460, HOP62, MDA-MB231, Hs-578T, HL60, MOLT-4, and CCRF-CEM.
(§2) On day 1, cells are counted, then centrifuged in a conical tube for 5 minutes at 1000 rpm. The supernatant is removed and cells are re-suspended as follows: • SW620 (ATCC catalog #CCL-27): resuspend in Leibovitz's L-15 medium, 2 mM L-glutamine, 10% fetal bovine serum to 6×10^4 cells/mL. • A375 (ATCC catalog #CRL-1619): resuspend in Dulbecco's modified Eagle's medium, 4 mM L-glutamine, 4.5 g/L D-glucose, 10% fetal bovine serum to 6×10^4 cells/mL. • COLO205 (ATCC catalog #CCL-222): resuspend in RPMI 1640, 2 mM L-glutamine, 1.5 g/L sodium bicarbonate, 4.5 g/L D-glucose, 10 mM HEPES, 1.0 mM sodium pyruvate, 10% fetal bovine serum to 6×10^4 cells/mL. • SKMEL2 (ATCC catalog #HTB-68): resuspend in Minimum Eagle essential medium, 2 mM L-glutamine, 1.5 g/L sodium bicarbonate, 0.1 mM non-essential amino acids, 1.0 mM sodium pyruvate, 10% fetal bovine serum to 6×10^4 cells/mL. • SKMEL3 (ATCC catalog #HTB-69): resuspend in McCoy's 5A medium, 1.5 mM L-glutamine, 15% fetal bovine serum to 6×10^4 cells/mL. • IPC298 (DSMZ catalog #ACC 251): resuspend in RPMI 1640, 2 mM L-glutamine, 10% fetal bovine serum to 6×10^4 cells/mL.
(§3) The cells are plated, 50 μL in each well of a 96-well dish (Corning 3610) and incubated at 37° C. in 5% CO2 overnight, cells plated to a final concentration of cells as follows: • SW620: 5,000 cells per well. • A375: 2,000 cells per well. • COLO205: 2,000 cells per well. • SKMEL2: 2,000 cells per well. • SKMEL3: 3,000 cells per well. • IPC298: 2,000 cells per well.
(§4) On day 2, compound at a maximum concentration of 5 mM is serially diluted 1:3 (e.g. 10 μL with 30 μL dimethyl sulfoxide) for a total of 8 point titration with DMSO as a control. A 1 μL aliquot of each dilution point and control is added to 249 μL growth media and 50 μL is added to a well containing cells, providing 10 μM compound at the maximum concentration point. The cells are incubated for 3 days at 37° C. in 5% CO2.
(§5) On day 5, ATPlite 1 step Luminescence Assay System (Perkin Elmer #6016739) is brought to room temperature along with the cell cultures. ATPlite is added 25 μL to each well, shake for 2 minutes, and the cells are incubated at room temperature for 10 minutes, then luminescence is read on Satire reader. The measured luminescence correlates directly with cell number, such that the reading as a function of compound concentration is used to determine the IC50 value.

COLO205 = COLO205 cell growth inhibitory activity (ATPlite); type: cell-based; conditions: Homo sapiens, COLO 205, 72 h; COLO205 cells, growth inhibition, 3 days
Description: as §1, §2, §3, §4, §5

SMILES | IC50 (A375) [µM] | IC50 (COLO205) [µM]
CN(C)c1ncc(-c2cnc3[nH]cc(C(=O)c4c(F)ccc(NS(=O)(=O)N5CCCC5)c4F)c3c2)cn1 [Compound P-0022] | < 1 | < 1
O=C(c1cccc(NS(=O)(=O)N2CCCC2)c1F)c1c[nH]c2ncc(-c3cnc(NC4CC4)nc3)cc12 [Compound P-0232, N-[3-[5-[2-(cyclopropylamino)pyrimidin-5-yl]-1H-pyrrolo[2,3-b]pyridine-3-carbonyl]-2-fluoro-phenyl]pyrrolidine-1-sulfonamide] | < 1 | < 1
O=C(c1c(F)ccc(NS(=O)(=O)N2CCC(F)(F)C2)c1F)c1c[nH]c2ncc(-c3cnc(C4CC4)nc3)cc12 [Compound P-0288, N-[3-[5-(2-cyclopropylpyrimidin-5-yl)-1H-pyrrolo[2,3-b]pyridine-3-carbonyl]-2,4-difluoro-phenyl]-3,3-difluoro-pyrrolidine-1-sulfonamide] | < 1 | < 1
CCN(C)S(=O)(=O)Nc1ccc(F)c(C(=O)c2c[nH]c3ncc(-c4ccc(C(=O)NC5CC5)nc4)cc23)c1F [Compound P-0312, N-cyclopropyl-5-[3-[3-[[ethyl(methyl)sulfamoyl]amino]-2,6-difluoro-benzoyl]-1H-pyrrolo[2,3-b]pyridin-5-yl]pyridine-2-carboxamide] | < 1 | < 1
O=C(c1c(F)ccc(NS(=O)(=O)N2CCCC2)c1F)c1c[nH]c2ncc(-c3cc(C(F)(F)F)ncn3)cc12 [Compound P-0294, N-[2,4-difluoro-3-[5-[6-(trifluoromethyl)pyrimidin-4-yl]-1H-pyrrolo[2,3-b]pyridine-3-carbonyl]phenyl]pyrrolidine-1-sulfonamide] | > 1 | > 1
CCN(C)S(=O)(=O)Nc1cccc(C(=O)c2c[nH]c3ncc(-c4ccc(C#N)cc4)cc23)c1F [Compound P-0031] | < 1 | < 1
CCCN(C)S(=O)(=O)Nc1cccc(C(=O)c2c[nH]c3ncc(-c4cnc(C5CC5)nc4)cc23)c1F [Compound P-0086, 5-(2-cyclopropylpyrimidin-5-yl)-3-[2-fluoro-3-[[methyl(propyl)sulfamoyl]amino]benzoyl]-1H-pyrrolo[2,3-b]pyridine] | < 1 | < 1
O=C(c1c(F)ccc(NS(=O)(=O)N2CCCC2)c1F)c1c[nH]c2ncc(-c3ccnc(OC4CCC4)c3)cc12 [Compound P-0286, N-[3-[5-[2-(cyclobutoxy)-4-pyridyl]-1H-pyrrolo[2,3-b]pyridine-3-carbonyl]-2,4-difluoro-phenyl]pyrrolidine-1-sulfonamide] | > 1 | < 1
COc1ncc(-c2cnc3[nH]cc(C(=O)c4cccc(NS(=O)(=O)N(C)CC5CC5)c4F)c3c2)cn1 [Compound P-0083, 3-[3-[[cyclopropylmethyl(methyl)sulfamoyl]amino]-2-fluoro-benzoyl]-5-(2-methoxypyrimidin-5-yl)-1H-pyrrolo[2,3-b]pyridine] | < 1 | < 1
O=C(c1c(F)ccc(NS(=O)(=O)N2CCCC2)c1F)c1c[nH]c2ncc(I)cc12 [Compound P-0024] | < 1 | > 1
O=C(c1c(F)ccc(NS(=O)(=O)N2CCCC2)c1F)c1c[nH]c2ncc(-c3cnc(N4CCOCC4)nc3)cc12 [Compound P-0266, N-[2,4-difluoro-3-[5-(2-morpholinopyrimidin-5-yl)-1H-pyrrolo[2,3-b]pyridine-3-carbonyl]phenyl]pyrrolidine-1-sulfonamide] | < 1 | < 1
O=C(c1c(F)ccc(NS(=O)(=O)N2CCCC2)c1F)c1c[nH]c2ncc(-c3ccc(Cl)cc3)cc12 [Compound P-0021] | < 1 | < 1
O=C(c1c(F)ccc(NS(=O)(=O)N2CCCC2)c1F)c1c[nH]c2ncc(F)c(I)c12 [Compound P-0015, N-[2,4-difluoro-3-(5-fluoro-4-iodo-1H-pyrrolo[2,3-b]pyridine-3-carbonyl)phenyl]pyrrolidine-1-sulfonamide] | < 1 | > 1
CN(C)S(=O)(=O)Nc1cccc(C(=O)c2c[nH]c3ncc(-c4ccccc4)cc23)c1F [Compound P-0037, 3-[3-(dimethylsulfamoylamino)-2-fluoro-benzoyl]-5-phenyl-1H-pyrrolo[2,3-b]pyridine] | < 1 | > 1
CCN(C)S(=O)(=O)Nc1ccc(F)c(C(=O)c2c[nH]c3ncc(-c4cccc(N(C)C)c4)cc23)c1F [Compound P-0302, 5-[3-(dimethylamino)phenyl]-3-[3-[[ethyl(methyl)sulfamoyl]amino]-2,6-difluoro-benzoyl]-1H-pyrrolo[2,3-b]pyridine] | < 1 | < 1
CCCN(C)S(=O)(=O)Nc1ccc(F)c(C(=O)c2c[nH]c3ncc(-c4ccc(C5(C#N)CC5)cc4)cc23)c1F [Compound P-0079, 5-[4-(1-cyanocyclopropyl)phenyl]-3-[2,6-difluoro-3-[[methyl(propyl)sulfamoyl]amino]benzoyl]-1H-pyrrolo[2,3-b]pyridine] | < 1 | < 1
COc1ncc(-c2cnc3[nH]cc(C(=O)c4cccc(NS(=O)(=O)N(C)C(C)C)c4F)c3c2)cn1 [Compound P-0075, 3-[2-fluoro-3-[[isopropyl(methyl)sulfamoyl]amino]benzoyl]-5-(2-methoxypyrimidin-5-yl)-1H-pyrrolo[2,3-b]pyridine] | < 1 | > 1
CN(C)S(=O)(=O)Nc1cccc(C(=O)c2c[nH]c3ncc(-c4ccc(C(C)(C)O)cc4)cc23)c1F [Compound P-0103, 3-[3-(dimethylsulfamoylamino)-2-fluoro-benzoyl]-5-[4-(1-hydroxy-1-methyl-ethyl)phenyl]-1H-pyrrolo[2,3-b]pyridine] | < 1 | < 1
CCOc1cnc(-c2cnc3[nH]cc(C(=O)c4c(F)ccc(NS(=O)(=O)N(C)C)c4F)c3c2)cn1 [Compound P-0244, 3-[3-(dimethylsulfamoylamino)-2,6-difluoro-benzoyl]-5-(5-ethoxypyrazin-2-yl)-1H-pyrrolo[2,3-b]pyridine] | > 1 | > 1
CCN(C)S(=O)(=O)Nc1ccc(F)c(C(=O)c2c[nH]c3ncc(-c4cnc(N5CCN(C(=O)OC(C)(C)C)CC5)nc4)cc23)c1F [Compound P-0264, tert-butyl 4-[5-[3-[3-[[ethyl(methyl)sulfamoyl]amino]-2,6-difluoro-benzoyl]-1H-pyrrolo[2,3-b]pyridin-5-yl]pyrimidin-2-yl]piperazine-1-carboxylate] | < 1 | < 1
CCN(C)S(=O)(=O)Nc1cccc(C(=O)c2c[nH]c3ncc(-c4ccc(C5CC5)nc4)cc23)c1F [Compound P-0087, 5-(6-cyclopropyl-3-pyridyl)-3-[3-[[ethyl(methyl)sulfamoyl]amino]-2-fluoro-benzoyl]-1H-pyrrolo[2,3-b]pyridine] | < 1 | < 1
